According to US20150175585A1, “FUSED QUINONIC COMPOUNDS” (CENTRO ATLANTICO DEL MEDICAMENTO S.A (CEAMED, S.A.), priority 2012, published 2015):

What was measured:
[1] = test system: JAK2; experiment: JAK2 phosphorylation western blot assay; type: cell-based, human; conditions: 10 microM, HEL or K562 cells (table does not say which)
Procedure: The Human Erythroleukemia cell line HEL and the human Chronic Myeloid Leukemia cell line K562 were cultured in RPM I 1640 medium containing 10% fetal bovine serum (FBS) and 50 U/ml penicillin/50 U/ml streptomycin at 37° C. in a 5% CO2 humidified atmosphere to a density of 300.000 viable cells/mL in presence of WP1066 (positive control of phosphorylation inhibition) (Verstovsek et al., 2008) or CM-363 at concentrations of 1, 5 and 10 μM. Cell culture reagents were all obtained from BioWhittaker® (Lonza, Verniers, Belgium). Cell growth and viability was determined by propidium iodide (fluorescent dye) exclusion method using the Accuchip 4× Counting Kit and the ADAM automatic cell counter (Digital-Bio, NanoEntek, Ic., Washington St, Mass., USA).As a control of unspecific phosphorylation, some cells in each experiment were exposed to vehicle (negative control of phosphorylation inhibition) (0.1% DMSO).
For total protein extraction, cells were scraped with RIPA 1× lysis buffer (25 mM Tris-HCl pH 7.6, 150 mM NaCl, 1% NP-40, 1% sodium deoxycholate, 0.1% SDS, no. 89900, Thermo Scientific, Rockford, Ill., USA) supplemented with 1× protease and 1× phosphatase inhibitor cocktails (100× Halt™ Protease Inhibitor Cocktail, no. 87786 and 100× Halt Phosphatase Inhibitor Cocktail, no. 78420, both from Thermo Scientific, Rockford, Ill., USA). An aliquot of each extract was preserved for protein quantification by bicinchoninic acid assay (Pierce® BCA Protein Assay Kit, no. 23225, Thermo Scientific, Rockford, Ill., USA).
Proteins were solubilized in sample buffer containing 0.0625 M Tris-HCl, pH 6.8, 2.3% (wt/vol) SDS, 10% (vol/vol) glycerol, 5% (vol/vol) f3-mercaptoethanol, and 0.001% (wt/vol) bromophenol blue and boiled at 95° C. for 5 min. Equal amounts (50 μg) of each sample were electrophoresed on 8-10% sodium dodecyl sulfate-polyacrylamide gel electrophoresis (SDS-PAGE) and transferred to nitrocellulose membranes (iBlot® Gel Transfer Stacks, Nitrocellulose, no. IB4010-02, Invitrogen, Barcelona, Spain) as described previously (Fernandez, L, et al., Endocrinology, 13, 1815-1824, 1998; B. Guerra et al., J. Neurochem, 91, 99-109, 2004; B. Guerra et al., J. Appl. Physiol., 102, 1786-1792, 2007; B. Guerra et al., J. Appl. Physiol., 111, 715-725, 2011). The nitrocellulose membranes were then removed from the iBlot® Dry GelTransfer Device (no. IB1001EU, Invitrogen, Barcelona, Spain) and placed in a Ponceau S staining solution (0.5% Ponceau S and 1% glacial acetic acid in water) to verify equal loading of protein in the control and treated samples. After the membranes were stained for 5 min, they were rinsed for 2 min and examined. Equal loading of protein was verified, and the membranes were rinsed for an additional 10 min and immunoscreened. Membranes were blocked with 5% blotting grade blocker nonfat dry milk in Tris Buffered Saline with 0.05% Tween 20 (TBST; blotto-blocking buffer) for at least […]) at room temperature. They were washed thrice in TBS with 0.1% Tween 20 (TBST-0.1). Next, the membranes were incubated over night at 4° C. with the appropriate anti-phospho-antibodies (described below) all diluted (1:1000) in 1% bovine serum albumin (BSA)-1% blotto in TBST (BSA-blotto blocking buffer). […] Membranes were stripped of bound antibodies by incubation in stripping buffer (Restore™ Western Blot Stripping Buffer, no. 21059, Thermo Scientific, Rockford, Ill., USA) at room temperature for 30 min with agitation. Membranes were washed for 3×10 min in TBST-0.1, blocked with blotto-blocking buffer for at least 1 h and re-probed with the corresponding anti-total kinase antibodies (described below) all diluted (1:1000) in blotto-blocking buffer. […]

[2] = test system: STAT5 transcription (pSPI-GLE1-luc) in HEK-GHR cells; experiment: HEK-GHR STAT5 transcription assay (luciferase reporter, rhGH stimulated); type: cell-based, human; conditions: Homo sapiens, compound 45 minutes before 50 nM rhGH, six hours, read-out: Activity (IC50, reduction of luciferase activity)
Excerpt: Plasmids: The full-length GHR was subcloned into pcDNA1/ampicillin (Invitrogen) as described previously (Ross R J, Esposito N, Shen X Y, et al., Mol Endocrinol 1997, 11:265-73). The pSPI-GLE1 (serine protease inhibitor 2.1 GAS-like element 1)-luc reporter construct was generated by subcloning the Stat5-binding element from serine protease inhibitor gene together with a minimal thymidine kinase promoter into the pGL2 plasmid (Promega), which contains the firefly luciferase cDNA (Wood T J, Sliva D, Lobie P E, et al. J Biol Chem 1995, 270:9448-53).
Cell culture: HEK-GHR cell line was maintained in Dulbecco's Modified Eagle Medium (DMEM)/F12 supplemented with 10% fetal bovine serum (FBS) and 50 U/ml penicillin/50 U/ml streptomycin. The cells were maintained in a humidified incubator with 5% CO2 at 37° C. Cell culture reagents were obtained from PAA laboratories. The HEK-GHR cell line is a stable clone generated and kindly donated by Prof. Richard Ross (Clinical Sciences, Northern General Hospital, Sheffield, UK). Briefly, HEK-GHR cell line was generated in HEK 293 cells (human kidney embryonal cell line) by transfection with the calcium phosphate procedure of the GHR plasmid with pcDNA3/Neo (Invitrogen). Selection was made using G418 (400 ug/ml, Sigma) (Maamra M, Finidori J, Von Laue S, et al., J Biol Chem 1999, 274(21):14791-8).
Luciferase reporter assay: Transcription assays were performed in HEK-GHR. The HEK-GHR cells were co-transfected with Stat5 luciferase (pSPI-GLE1-luc) reporter vector together with a plasmid constitutively expressing beta-galactosidase by using Metafectene Pro as described by the manufacturer (Biontex Laboratories GmbH, Munich, Germany). Following transfection, HEK-GHR cells were serum-starved for 20 h. Cells were then treated with vehicle (0.1% DMSO) or the indicated compound for 45 minutes prior to the addition of 50 nM recombinant human Growth Hormone (rhGH) (Norditropin, Novo Nordisk) to the medium. Six hours following rhGH addition, cells were harvested with Passive Lysis Buffer (Promega), and levels of luciferase were measured using Luciferase Assay System as described by the manufacturer (Promega). The Galacto-Light Plus System (Applied Biosystems) was used to measure beta-galactosidase activity.
Statistical analysis. The concentration of drug that provokes 50% reduction of luciferase activity (IC50) was determined by using non-linear regression analysis and data were fitted to a log concentration vs normalized response curve in GraphPad software v5 (San Diego, Calif.).

N#Cc1ccc(C2C3=C(CCCC3=O)OC3=C2C(=O)c2ccccc2C3=O)cc1 (centres unmarked) [Compound 4, 4-(1,6,11-trioxo-2,3,4,6,11,12-hexahydro-1H-benzo[b]xanthen-12-yl)benzonitrile]
Activity (inhibition of JAK2 phosphorylation) [1]: ++ (++represents an inhibition at 10 microM > 50%)
IC50 [2]: < 1000 nM
